According to patent US20250025568A1, “COMBINATION OF ANTIBODY-DRUG CONJUGATE AND PARP1 SELECTIVE INHIBITOR” (AstraZeneca UK Limited, priority 2021, published 2025):

B1: DS-1062: anti-TROP2 antibody-drug conjugate; exatecan-derivative drug-linker conjugated to the anti-TROP2 antibody via a thioether bond; DAR ~4 (conjugate, chains of the INN, looked up)
VH: QVQLVQSGAEVKKPGASVKVSCKASGYTFTTAGMQWVRQAPGQGLEWMGWINTHSGVPKYAEDFKGRVTISADTSTSTAYLQLSSLKSEDTAVYYCARSGFGSSYWYFDVWGQGTLVTVSS
VL: DIQMTQSPSSLSASVGDRVTITCKASQDVSTAVAWYQQKPGKAPKLLIYSASYRYTGVPSRFSGSGSGTDFTLTISSLQPEDFAVYYCQQHYITPLTFGQGTKLEIK
modifications: exatecan-derivative drug-linker, DAR ~4

Assays:
[1] = tested on: NCI-N87 xenograft (gastric cancer cell line); assay: Antitumor test (dose titration) in vivo, NCI-N87 xenograft model (Example 6); parameters: species or system Female Nude mice
Protocol: (§1) Female Nude mice (Charles River) aged 5-8 weeks were used, following 7 days acclimatisation before entry into the study. 5×10^6 NCI-N87 tumor cells (gastric cancer cell line) (1:1 in Matrigel) were implanted subcutaneously onto the flank of the female Nude mice. When tumors reached approximately 250 mm^3, similar-sized tumors were randomly assigned to treatment groups as shown in Table 10:
(§2) The dose of compound for each animal was calculated based on the individual body weight on the day of dosing. DS-1062 and AZD5305 were dosed on the same day, with DS-1062 being administered approximately 5 hour post the PO dose of AZD5305. DS-1062 was administered as a single dose at 10 mg/kg on day 1, and AZD5305 was administered at 1, 0.1 or 0.01 mg/kg QD for 21 days. Duration of dosing was for 21 days.

[2] = tested on: BRCA2 −/− DLD-1; details: 4 day compound dosing; read-out: BRCA2 −/− DLD-1 prolif 4 d IC50; cited from earlier work
[3] = tested on: WT DLD-1; details: 4 day compound dosing; read-out: WT DLD-1 prolif 4 d IC50; cited from earlier work
[4] = tested on: CTG-3303 TNBC PDX; assay: Antitumor test in vivo, TNBC patient derived xenograft model (Example 5); parameters: species or system Female Nude mice; details: for TGI % day 46: CTG-3303 TNBC PDX; for percentage of mice achieving a complete response (tumor volume <20 mm^3): day 46 post treatment
Source text: Female Nude mice (Charles River) aged 5-8 weeks were used, following 7 days acclimatisation before entry into the study. The human patient-derived xenograft (PDX) model, CTG-3303, was established from fragments of freshly resected tumor of a triple negative breast cancer (TNBC) patient whom relapsed on treatment with PARP inhibitor talazoparib. This PDX was obtained in accordance with appropriate consent procedures. This TNBC PDX model was subcutaneously passaged in vivo as fragments from animal to animal in nude mice. When tumors reached approximately 250 mm^3, similar-sized tumors were randomly assigned to treatment groups as shown in Table 8:
as §2, with “1” for “1, 0.1 or 0.01”
(§3) Tumor growth inhibition (TGI) was calculated as follows:
(§4) where MTV=mean tumor volume.
(§5) Statistical significance was evaluated using one-tailed t-test of (log (relative tumor volume)=log (final vol/start vol)) at the day of final measure, comparing to vehicle control.
In addition, the percentage of mice in each treatment group achieving a complete response (defined as tumor volume <20 mm^3) at day 46 post treatment were calculated and shown in FIG. 19B. Monotherapy with DS-1062 at 10 mg/kg led to 1 out 8 mice (12.5%) achieving a complete response at day 46 post treatment. AZD5305 monotherapy led to 0 out 8 mice (0%) achieving a complete response at day 46 post treatment. Combination treatment of AZD5305 with DS-1062 at 10 mg/kg led to 2 out 8 mice (25%) achieving a complete response at day 46 post treatment and led to higher complete response rates than either respective monotherapy.

[5] = tested on: CTG-3718 ovarian PDX; assay: Antitumor test in vivo, CTG-3718 xenograft model (Example 8); parameters: species or system nude mice
Source text: The human patient-derived xenograft (PDX) model, CTG-3718, was established from fragments of freshly resected tumor of an ovarian cancer patient who relapsed on treatment with PARP inhibitor talazoparib. This PDX was obtained in accordance with appropriate consent procedures. This ovarian PDX model was subcutaneously passaged in vivo as fragments from animal to animal in nude mice. When tumors reached approximately 250 mm^3, similar-sized tumors were randomly assigned to treatment groups as shown in Table 14: […]

[6] = tested on: NCI-N87 xenograft (gastric cancer cell line); assay: Antitumor test in vivo, NCI-N87 xenograft model (Example 4); parameters: species or system Female Nude mice
Protocol: as §1, with “6:” for “10:”
as §2, with “1” for “1, 0.1 or 0.01”
as §3, §4, §5

[7] = tested on: NCI-N87 xenograft (gastric cancer cell line); assay: Antitumor test (dose regimen optimization) in vivo, NCI-N87 xenograft model (Example 7); parameters: species or system Female Nude mice
Protocol: as §1, with “12:” for “10:”
The dose of compound for each animal was calculated based on the individual body weight on the day of dosing. […]

[8] = molecular target: hERG (Homo sapiens, UniProt Q12809); details: cited from earlier work
Chain of hERG (Q12809 whole entry): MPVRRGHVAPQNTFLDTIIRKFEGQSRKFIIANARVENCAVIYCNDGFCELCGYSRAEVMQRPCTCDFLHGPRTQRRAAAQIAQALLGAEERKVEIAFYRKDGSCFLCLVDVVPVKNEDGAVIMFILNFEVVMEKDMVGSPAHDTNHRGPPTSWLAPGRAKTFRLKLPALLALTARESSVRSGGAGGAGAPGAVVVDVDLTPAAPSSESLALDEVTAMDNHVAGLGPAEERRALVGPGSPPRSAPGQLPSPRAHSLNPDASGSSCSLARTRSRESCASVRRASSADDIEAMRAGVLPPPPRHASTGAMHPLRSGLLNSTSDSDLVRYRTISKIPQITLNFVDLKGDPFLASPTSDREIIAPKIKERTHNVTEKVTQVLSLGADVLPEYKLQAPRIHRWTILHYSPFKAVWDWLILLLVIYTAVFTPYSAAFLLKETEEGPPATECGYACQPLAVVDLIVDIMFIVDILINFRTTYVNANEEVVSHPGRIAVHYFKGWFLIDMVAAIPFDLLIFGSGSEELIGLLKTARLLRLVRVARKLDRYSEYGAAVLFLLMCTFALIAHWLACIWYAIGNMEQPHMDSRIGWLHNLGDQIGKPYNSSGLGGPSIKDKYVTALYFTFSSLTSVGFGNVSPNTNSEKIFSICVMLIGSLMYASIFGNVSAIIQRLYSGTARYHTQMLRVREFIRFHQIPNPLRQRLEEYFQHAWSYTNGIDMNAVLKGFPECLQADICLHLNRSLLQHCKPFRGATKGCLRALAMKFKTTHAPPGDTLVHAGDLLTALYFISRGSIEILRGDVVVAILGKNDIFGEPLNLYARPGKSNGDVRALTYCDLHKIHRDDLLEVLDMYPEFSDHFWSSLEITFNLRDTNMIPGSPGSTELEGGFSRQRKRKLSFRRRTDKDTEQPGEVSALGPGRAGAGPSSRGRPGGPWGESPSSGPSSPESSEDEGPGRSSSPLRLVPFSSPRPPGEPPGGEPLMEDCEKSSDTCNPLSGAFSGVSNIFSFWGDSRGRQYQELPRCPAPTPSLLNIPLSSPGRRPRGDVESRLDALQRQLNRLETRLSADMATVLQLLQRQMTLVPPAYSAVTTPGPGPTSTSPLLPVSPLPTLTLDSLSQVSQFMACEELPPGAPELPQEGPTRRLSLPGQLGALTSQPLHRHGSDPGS

[9] = AZD5305 1 mg/kg PO QD for 21 days, 1 mg/kg
[10] = DS-1062 10 mg/kg IV single dose, 10 mg/kg

Molecule | TGI % day 49 [1, 9] [%] | IC50 [2] [nM] | IC50 [3] [µM] | TGI % day 46 [4, 9] [%] | percentage of mice achieving a complete response (tumor volume <20 mm^3) ([4]; AZD5305 1 mg/kg QD) [%] | TGI % day 28 ([5]; AZD5305 0.1 mg/kg PO QD (21 days), 0.1 mg/kg) [%] | TGI % day 19 [6, 9] [%] | TGI % day 52 ([7]; AZD5305 1 mg/kg PO QD (21 days), 1 mg/kg) [%] | IC50 [8] [µM] | TGI % day 49 [1, 10] [%] | TGI % day 46 [4, 10] [%] | percentage of mice achieving a complete response (tumor volume <20 mm^3) ([4]; DS-1062 10 mg/kg) [%] | TGI % day 28 [5, 10] [%] | TGI % day 19 [6, 10] [%] | TGI % day 52 [7, 10] [%]
CCc1cc2ncc(CN3CCN(c4ccc(C(=O)NC)nc4)CC3)cc2[nH]c1=O [Example 4, 5-[4-[(7-ethyl-6-oxo-5H-1,5-naphthyridin-3-yl)methyl]piperazin-1-yl]-N-methyl-pyridine-2-carboxamide] | 18 | > 17 | > 30 | 28 | 0 | −16 | 22 | 26 | – | – | – | – | – | – | –
CCc1cc2ncc(CN3CCN(c4ccc(C(=O)NC)nc4C(F)(F)F)CC3)cc2[nH]c1=O [Example 30, 5-[4-[(7-ethyl-6-oxo-5H-1,5-naphthyridin-3-yl)methyl]piperazin-1-yl]-N-methyl-6 (trifluoromethyl)pyridine-2-carboxamide] | – | 4 | > 30 | – | – | – | – | – | > 40 | – | – | – | – | – | –
B1 | – | – | – | – | – | – | – | – | – | 75 | 88 | 12.5 | 72 | 82 | 84
